Measured values published in US20140113888A1, “Novel Combination of Therapeutic Agents” (Glaxo Group Limited, priority 2011, published 2014).

Key:
[1] = 8 week randomised, double-blind, placebo-controlled study in persistent uncontrolled asthma; type: in vivo, human
Method: In one such study, the safety and efficacy of four doses of fluticasone furoate in subjects with persistent uncontrolled asthma were evaluated. In this study, which was a randomised, double-blind, placebo-controlled, parallel group study, 598 patients received one of six treatments: fluticasone furoate (25, 50, 100 or 200 mcg) once daily, fluticasone propionate 100 mcg twice daily or placebo for 8 weeks. The primary endpoint was change from baseline in trough (pre-dose) forced expiratory volume in 1 second (FEV1) at Week 8. […] This study supports the use of fluticasone furoate (100 or 200 mcg once-daily) for the treatment of persistant uncontrolled asthma.

[2] = clinical studies of fluticasone furoate (general statement); type: in vivo, human
human M3 receptor = human M3 receptor (Homo sapiens, UniProt P20309); test: reversibility at the human M3 receptor in vitro; type: binding
human M3 receptor, sequence (P20309 whole entry): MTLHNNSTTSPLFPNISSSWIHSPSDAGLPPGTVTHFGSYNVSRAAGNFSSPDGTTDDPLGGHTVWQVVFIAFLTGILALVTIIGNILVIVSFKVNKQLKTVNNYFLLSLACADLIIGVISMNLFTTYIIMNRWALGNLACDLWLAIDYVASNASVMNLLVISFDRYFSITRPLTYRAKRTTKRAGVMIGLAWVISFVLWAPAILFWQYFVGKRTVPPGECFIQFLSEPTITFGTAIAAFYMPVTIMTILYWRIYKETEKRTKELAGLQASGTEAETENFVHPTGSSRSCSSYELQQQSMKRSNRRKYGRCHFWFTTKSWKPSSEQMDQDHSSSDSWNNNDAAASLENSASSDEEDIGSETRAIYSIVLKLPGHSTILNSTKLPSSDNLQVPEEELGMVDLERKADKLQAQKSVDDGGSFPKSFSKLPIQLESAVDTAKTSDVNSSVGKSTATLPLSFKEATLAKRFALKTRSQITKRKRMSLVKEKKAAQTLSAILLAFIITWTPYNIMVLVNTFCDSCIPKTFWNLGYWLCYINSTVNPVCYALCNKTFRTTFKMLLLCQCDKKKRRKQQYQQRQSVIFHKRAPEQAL

[3] = duration of action in vivo, administered directly to the lungs in pre-clinical models
[4] = clinical pharmacology studies, single inhaled doses, plethysmography (sGaw, Raw) and spirometry (FEV1); type: in vivo, human; conditions: healthy volunteers and COPD patients
Method: Several clinical pharmacology studies have been conducted using umeclidinium bromide in both healthy volunteers and COPD patients to investigate the safety, tolerability, pharmacokinetics and pharmacodynamics of this compound. The bronchodilatory effects and duration of action of single inhaled doses of this compound as measured by plethysmography (sGaw, Raw) and spirometry (FEV1) were assessed in some of the above noted studies.

[5] = 14-day once-daily study in subjects with COPD; type: in vivo, human; conditions: 14 days
Excerpt: In addition, this study confirmed that umeclidinium bromide has a once-daily profile.

[6] = 28 day once-daily dry powder inhaler study in subjects with COPD; type: in vivo, human; conditions: 125, 250 and 500 mcg once-daily, 28 days
Excerpt: A further study evaluated the efficacy and safety of three doses (125 mcg, 250 mcg and 500 mcg) of umeclidinium bromide administered once-daily via a dry powder inhaler over a 28 day period in subjects with COPD.

muscarinic receptor = test: studies in animal models and in humans: muscarinic receptor antagonism

SMILES | change from baseline in trough FEV1 at Week 8 relative to placebo ([1]; 50-200 mcg once daily, p<0.05) | increase in trough FEV1 at Week 8 ([1]; 100 mcg once daily) | increase in trough FEV1 at Week 8 ([1]; 200 mcg once daily) | tolerability ([2]; clinical studies) | activity after dosing ([2]; inhaled) | reversibility at the human M3 receptor (human M3 receptor) | duration of action in vivo [3] | bronchodilatory effects (sGaw, Raw, FEV1) [4] | duration of action [4] | pulmonary function compared to placebo ([5]; 62.5, 125, 250, 500 and 1000 mcg once-daily) | trough FEV1 versus open label tiotropium active control (18 mcg once-daily) ([5]; all once-daily doses 62.5-1000 mcg) | bronchodilation [6] | safety [6] | muscarinic receptor antagonist profile (muscarinic receptor)
C[C@@H]1C[C@H]2[C@@H]3C[C@H](F)C4=CC(=O)C=C[C@]4(C)[C@@]3(F)[C@@H](O)C[C@]2(C)[C@@]1(OC(=O)c1ccco1)C(=O)SCF [fluticasone furoate, 6α,9α-difluoro-17α-[(2-furanylcarbonyl)oxy]-11β-hydroxy-16α-methyl-3-oxo-androsta-1,4-diene-17β-carbothioic acid S-fluoromethyl ester] | significantly greater increases | > 200 mL | > 200 mL | well-tolerated | still active 24 hours after dosing | – | – | – | – | – | – | – | – | –
OC(c1ccccc1)(c1ccccc1)C12CC[N+](CCOCc3ccccc3)(CC1)CC2.[Br-] [umeclidinium bromide, 4-[hydroxy(diphenyl)methyl]-1-{2-[(phenylmethyl)oxy]ethyl}-1-azoniabicyclo[2.2.2]octane bromide] | – | – | – | – | – | slow reversibility | long duration of action | clinically relevant bronchodilation | 24 h | statistically significant improvements | numerically greater improvement | significant bronchodilation over twenty four hours | safe | long acting high-affinity pan-active muscarinic receptor antagonist
